Data: patent publication US6339079B1, “Steroid sulfamates, method for the production and use thereof” (id pharma GmbH, priority 1997, dated 2002)

Tests used:
[1] = estrogenic effectiveness in vivo; details: applied orally in vivo
steroid sulfatase = molecular target: T1, steroid sulfatase (Homo sapiens, UniProt P08842); details: found by M. J. Reed et al.; cited from earlier work
T1 sequence (P08842 22-583): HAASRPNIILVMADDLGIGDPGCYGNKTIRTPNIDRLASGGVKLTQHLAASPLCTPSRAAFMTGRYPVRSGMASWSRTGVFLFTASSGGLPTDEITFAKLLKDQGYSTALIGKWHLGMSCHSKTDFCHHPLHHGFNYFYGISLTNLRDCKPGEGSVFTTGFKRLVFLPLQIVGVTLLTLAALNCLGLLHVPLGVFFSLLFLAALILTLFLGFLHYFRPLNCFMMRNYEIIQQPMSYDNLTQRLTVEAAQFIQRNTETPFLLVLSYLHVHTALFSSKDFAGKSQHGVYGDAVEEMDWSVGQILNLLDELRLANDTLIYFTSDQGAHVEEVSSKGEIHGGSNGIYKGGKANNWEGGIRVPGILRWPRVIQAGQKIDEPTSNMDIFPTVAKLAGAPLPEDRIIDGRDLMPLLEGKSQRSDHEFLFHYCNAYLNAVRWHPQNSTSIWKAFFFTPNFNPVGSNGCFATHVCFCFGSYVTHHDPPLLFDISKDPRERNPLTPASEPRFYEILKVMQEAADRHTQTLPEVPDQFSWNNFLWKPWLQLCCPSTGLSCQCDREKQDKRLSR

C[C@]12CC[C@@H]3c4ccc(OS(N)(=O)=O)cc4CC[C@H]3[C@@H]1C[C@@H](Br)[C@@H]2O [16α-bromoestradiol-3-sulfamate, 16α-Bromo-3-sulfamoyloxy-13β-methyl-1,3,5(10)-gonatrien-17β-ol]
estrogenic effectiveness compared with estradiol-3-sulfamate ([1]; relative to estradiol-3-sulfamate): three times more effective | estrogenic effectiveness compared with estriol ([1]; relative to estriol): five times more effective

C[C@]12CC[C@@H]3c4ccc(OS(N)(=O)=O)cc4CC[C@H]3[C@@H]1CC[C@@H]2O [estradiol-3-sulfamate]
sulfatase-inhibiting activity (steroid sulfatase): strong sulfatase-inhibiting activity

C[C@]12CC[C@@H]3c4ccc(OS(N)(=O)=O)cc4CC[C@H]3[C@@H]1CCC2=O [estrone-3-sulfamate]
sulfatase-inhibiting activity (steroid sulfatase): strong sulfatase-inhibiting activity
